Assay: Solubility of the folate salt in organic (apolar) solvents at 20° C.
Conditions: based on total weight of the solution
Method: Solubility has been determined at 20° C. Apolar solvents or mixtures thereof are for instance glycerol, methanol, ethanol, 1-propanol, 2-propanol and dimethylsulfoxid (DMSO). Apolar solvents are understood as dry solvents, that is without any water content. Apolar solvents may be pure solvents, comprising only one type of apolar solvent or it may be a mixture of at least two of the aforementioned apolar solvents. Polarity is in comparison to the polarity of water.
A high degree of crystallinity means that the crystalline content of the folate salt is higher than 40% based on the total amount of the folate salt.

SMILES | Solubility in 1-Propanol [% w/w] | Solubility in DMSO [% w/w] | Solubility in Ethanol [% w/w] | Solubility in Glycerol [% w/w] | Solubility in Methanol [% w/w]
CC(C)(N)CO.CC(C)(N)CO.CN1c2c(nc(N)[nH]c2=O)NC[C@@H]1CNc1ccc(C(=O)N[C@@H](CCC(=O)O)C(=O)O)cc1 [L-MTHF di AMP, 5-Methyl-(6S)-tetrahydrofolic acid di 2-Amino-2-methyl propanol salt] | 0.1 | 23.1 | 0.1 | 16.7 | 11.2
CN1c2c(nc(N)[nH]c2=O)NC[C@@H]1CNc1ccc(C(=O)N[C@@H](CCC(=O)O)C(=O)O)cc1.CNCCO.CNCCO [L-MTHF di NMAE, 5-Methyl-(6S)-tetrahydrofolic acid di N-methylaminoethanol salt] | 0.1 | 3.5 | 0.2 | 16.7 | 3.6
CN(C)CCO.CN1c2c(nc(N)[nH]c2=O)NC[C@@H]1CNc1ccc(C(=O)N[C@@H](CCC(=O)O)C(=O)O)cc1 [L-MTHF mono deanol, 5-Methyl-(6S)-tetrahydrofolic Acid Mono 2-Dimethylaminoethanol Salt] | 0.2 | 24.8 | 0.2 | 10.0 | 2.5
